Like-named read-outs stand apart in the source and are kept apart here.
How the values were obtained:
[1] = cited from earlier work
[2] = proton acceptor, aqueous; cited from earlier work
[3] = Acid-base titrations of NS—NH2 in the presence of proton-accepting quenchers (modified Stern-Volmer, Equation 7); conditions: for pKa: pKa,BH+ (Equation 7)
Text: Assuming that photoluminescence quenching occurs by ESPT from NS—NH2* to OH^−(aq), the data support that when aOH− is small (i.e. at pH less than about 12), ESPT can be quite slow compared to the excited-state lifetime of NS—NH2*, due to mass action (FIG. 2B). The non-unity quantum yield for ESPT in weakly alkaline aqueous solutions afforded us an opportunity to evaluate a series of aqueous proton-accepting quenchers (glycine (Gly(aq)), proline (Pro(aq)), and trifluoroethanol (TFE(aq))) for their ability to undergo ESPT with NS—NH2*. In order to clearly observe ESPT to a species other than OH^−(aq), added proton-accepting quenchers had to be more basic (ΔG^o<0), or slightly more acidic (ΔG^o>0), than NS—NH2*, and less basic than OH^−(aq). […] As pH values approach and pass the pKa of the proton-accepting quencher, the rate of ESPT slows from a decrease in the concentration of proton-accepting quencher due to its protonation. This is supported by observations from analogous experiments performed using different concentrations of quencher. Best fits of measured photoluminescence spectroscopy data to a modified Stern-Volmer equation for a two-quencher system, including both OH^−(aq) and proton-accepting quencher, provided bimolecular rate constants for deprotonation of the photoacid by each quencher,
where KSV,OH−=K*^−1b and KSV,quencher=k+q,quencherτo,PAH* are the dynamic quenching constants for excited-state proton transfer to OH^−(aq) and proton-accepting quencher, respectively, k+q,quencher is the bimolecular rate constant (M^−1 s^−1) for ESPT quenching by the proton-accepting quencher, and the sum of the activities of B and BH^+ is approximated as the total concentration of the proton-accepting quencher. While the pKa of the proton-accepting quencher is an adjustable parameter during best fitting, extracted pKa values are close to pKa values obtained from the acid-base titration curves of the proton-accepting quenchers. Changing the proton-accepting quencher to one with a smaller pKa value results in a slower non-diffusion-limited rate constant for ESPT with NS—NH2*. The observation of ESPT directly from NS—NH2* to each of two different amino acids, Gly and Pro, is notable, and may have important implications for biological systems where direct protonation of proteins can induce cellular responses.
Table 2 lists driving-force-dependent rate constants for direct excited-state proton transfer from NS—NH2* to various proton-accepting quenchers.
Several embodiments use the steady-state ultraviolet-visible electronic absorption and photoluminescence spectroscopy for characterization. Equal amounts of aromatic amine photoacids are portioned into five separate 100 mL volumetric flasks. For the non-proton-accepting quencher experiments, the five flasks are filled to the volumetric marker with aqueous solutions of 1 M HCl, 1 M KOH, 2 M KOH, 3 M KOH, and 4 M KOH. The aqueous 1 M KOH solution is titrated with the aqueous 1 M HCl solution to reach the desired pH values from 14 to 6, and the H^+ activities are measured using a pH meter (pH/Ion 510). […] Electronic absorption spectra and photoluminescence spectra are acquired using absorbance and fluorescence spectrometer(s), using a square-bottom quartz cuvette (1 cm path length) at room temperature. Electronic absorption spectra are baselined on a spectrum of deionized water and were corrected for scattering of light. Photoluminescence spectra are recorded by exciting with 310 nm light, slit widths for the excitation and emission monochromators were set to 5 nm, and the PMT detector voltage is set to 600 V. Photoluminescence spectra are corrected for changes in solution refractive index, inner filter effects and the wavelength-dependent correction factor of the fluorimeter.

[4] = quenching of NS—NH2*, 1 M total quencher

In the case of `O=C(O)[C@@H]1CCCN1` [Proline], the “pKa, literature value” [1] is listed as 10.5, the “Diffusion Coefficient” value [2] is listed as 8.79 10^−6 cm^2/s and the pKa (physchem) is listed as 10.8. The “bimolecular rate constant, deprotonation of NS—NH2* by the quencher” value ([3]; 1 M total quencher) was “(1.70±0.05)×10^8 M^−1 s^−1”, the “k+q,corr” value ([3]; corrected rate constant, ESPT from NS—NH2* to the proton acceptor) was 7.11 ± 0.21 10^8 M^−1 s^−1 and the “k+q” value ([3]; direct excited-state proton transfer from NS—NH2* to the proton acceptor) was 1.70 ± 0.05 10^8 M^−1 s^−1. The pKa ([3]; value after the slash) was 10.8, the pKa ([3]; value before the slash) was 10.7 and the “KSV,quencher (Equation 7)” value [3, 4] was 0.80 ± 0.02 M⁻¹. The “KSV,quencher (traditional linearized Stern-Volmer)” value [3, 4] was 0.79 ± 0.01 M⁻¹.

Reference: patent US20230358677A1, “Reversible Excited-State Photoacids and Photobases as Dynamic Fluorescence Sensors of Protonic Species” (California Institute of Technology, priority 2022, published 2023)
